Assay results reported in US20210355103A1, “PARG INHIBITORS AND METHOD OF USE THEREOF” (City of Hope, priority 2018, published 2021).

Key:
PARG = biological target: T1, PARG (Homo sapiens, UniProt Q86W56); assay: PAR digestion assay (dot blotting) for PARG inhibition; format: biochemical; conditions: 0.25 nM PARG incubated with 10 μM PAR for 20 min at room temperature; dot blotting with anti-PAR antibody
T1 construct: made in house; host or cells: Sf9 insect cells
Procedure: Compounds (FIG. 4) were synthesized to examine the efficacy of PARG inhibition by dot blotting assay (Example 5). 0.25 nM PARG was incubated with 10 μM PAR for 20 min at room temperature with or without inhibitors. PAR-digestion results were analyzed using dot blotting with anti-PAR antibody.
The array includes compounds in FIG. 4 (PG002 (“002”), PG006 (“006”), PG008 (“008”), PG010 (“010”), and PG021(“021”)), PC (positive control, PAR only), NC (negative control, no inhibitor), and COH34 (“34”, positive control for PARG inhibition). In FIG. 5A, 0.3X means 3-fold dilution.
Recombinant PARG protein from Sf9 cells were incubated with PAR purified from FhCh-treated PARG-knock down HCT116 cells (10 μM, calculated as the ADP-ribose unit) and DMSO (Negative control, NC) or small molecules for 20 minutes at room temperature. Positive control (PC) only contains PAR in PBS. Samples (1 μl) were spotted onto a nitrocellulose membrane. Then, the membrane was backed for 30 minutes at 60° C. and blocked with TBST buffer (0.15 M NaCl, 0.01 M Tris-HCl at pH 7.4, 0.1% Tween 20) supplemented with 5% milk for 30 minutes at room temperature. After washing with TBST, the membrane was incubated with monoclonal PAR antibody (Trevigen, Inc.) overnight at 4° C. Following standard Western blotting method, the signals were visualized by chemiluminescent detection (FIG. 5B).

[1] = test system: HCC1937 (BRCA1-mutant breast cancer cells); assay: Colony formation (cell viability) assay in HCC1937 cells; format: cell-based; conditions: HCC1937, 1 μM PARG inhibitor, 14-day culture, colonies >50 cells counted
Procedure: To examine the efficacy of PG compounds in DNA repair-defective cancer cells, colony formation assays were performed using HCC1937 (BRCA1-mutant breast cancer cells) with or without 1 μM PARG inhibitors (PG002, PG006, PG008, and PG010). COH34 was used as a positive control. HCC1937 (˜1000 cells) were seeded into six-well plates and then treated by various doses of PARG inhibitors. After a 14-day culture, the viable cells were fixed by methanol and stained with crystal violet. The number of colonies (>50 cells for each colony) was calculated. The results were summarized in the histograms (FIG. 7).

T1 sequence (Q86W56 whole entry): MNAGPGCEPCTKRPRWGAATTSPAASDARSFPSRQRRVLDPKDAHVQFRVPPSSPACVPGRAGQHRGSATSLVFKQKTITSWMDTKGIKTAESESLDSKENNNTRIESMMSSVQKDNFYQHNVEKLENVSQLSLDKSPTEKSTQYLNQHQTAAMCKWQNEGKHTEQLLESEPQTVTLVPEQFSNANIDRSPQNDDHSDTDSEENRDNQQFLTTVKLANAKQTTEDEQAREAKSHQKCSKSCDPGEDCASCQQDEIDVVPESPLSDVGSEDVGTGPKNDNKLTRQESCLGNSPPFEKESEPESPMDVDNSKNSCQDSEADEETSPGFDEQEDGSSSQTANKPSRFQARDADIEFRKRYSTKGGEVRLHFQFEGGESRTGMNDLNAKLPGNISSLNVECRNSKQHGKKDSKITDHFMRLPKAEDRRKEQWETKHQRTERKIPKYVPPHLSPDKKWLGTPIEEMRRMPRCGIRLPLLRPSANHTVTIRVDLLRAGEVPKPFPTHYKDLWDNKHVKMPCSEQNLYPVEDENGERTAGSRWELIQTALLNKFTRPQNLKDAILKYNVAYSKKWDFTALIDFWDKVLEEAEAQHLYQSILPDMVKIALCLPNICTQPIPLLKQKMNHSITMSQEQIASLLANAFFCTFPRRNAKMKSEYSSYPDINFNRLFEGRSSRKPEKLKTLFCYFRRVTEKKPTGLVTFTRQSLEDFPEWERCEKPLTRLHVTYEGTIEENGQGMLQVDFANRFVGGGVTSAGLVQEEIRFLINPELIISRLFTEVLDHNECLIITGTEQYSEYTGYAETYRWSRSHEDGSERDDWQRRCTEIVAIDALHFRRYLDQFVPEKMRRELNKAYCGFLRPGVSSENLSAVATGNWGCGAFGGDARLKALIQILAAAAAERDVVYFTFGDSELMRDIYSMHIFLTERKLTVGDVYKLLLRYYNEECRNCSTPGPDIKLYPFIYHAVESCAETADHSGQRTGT

Row | inhibitory activity for PARG (PARG) | SMILES | death of the tumor cells (colony formation) [1]
1 | good inhibitory activity | O=C(N/N=C/c1nccc2ccccc12)c1ccc(Cl)cc1 [PG006, 4-chloro-N′-[(1E)-(isoquinolin-1-yl)methylidene]benzohydrazide] | increased death of the tumor cells
2 | good inhibitory activity | O=S(=O)(N/N=C/c1c(O)ccc2ccccc12)c1ccc(Cl)cn1 [PG021, 5-chloro-N′-[(1E)-(2-hydroxynaphthalen-1-yl)methylidene]pyridine-2-sulfonohydrazide] | –
3 | good inhibitory activity | O=C(N/N=C/c1c(O)ccc2ccccc12)c1ccc(Cl)cn1 [PG002, 5-chloro-N′-[(1E)-(2-hydroxynaphthalen-1-yl)methylidene]pyridine-2-carbohydrazide] | increased death of the tumor cells
4 | good inhibitory activity | O=C(N/N=C/c1c(O)cnc2ccccc12)c1ccc(Cl)cc1 [PG008, 4-chloro-N-[(1E)-(3-hydroxyquinolin-4-yl)methylidene]benzohydrazide] | increased death of the tumor cells
5 | good inhibitory activity | O=C(N/N=C/c1c(O)ccc2cccnc12)c1ccc(Cl)cc1 [PG010, 4-chloro-N′-[(1E)-(7-hydroxyquinolin-8-yl)methylidene]benzohydrazide] | increased death of the tumor cells
